PubChem BioAssay AID1963833 (Molecular Pharmacology Branch, DTP, NCI, 2024)

Test system: 883617-216-R-J1-PDC complex spheroid viability
Test: Anticancer human tumor 883617-216-R-J1-PDC patient-derived bladder carcinoma cell line growth inhibition [POLQ]
Conditions: for IC50: curve of first compound; for viability, T/C: stronger effect = lower value; active means viability on the fitted dose curve at most 10% of control; inactive means the rest
How it was run: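 Three-cell-type spheroids modelling solid tumor plus stroma served as the readout system; POL inhibitors were tested individually and in combination, concentration ranges set by clinical Cmax where known.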
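Further: spheroids exposed to compounds for seven days before readout.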
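Wherever viability, T/C is given: 100% = DMSO vehicle control viability.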

CC(=O)O[C@H]1C(=O)[C@@]2(C)[C@H]([C@H](OC(=O)c3ccccc3)[C@]3(O)C[C@H](OC(=O)[C@H](O)[C@@H](NC(=O)c4ccccc4)c4ccccc4)C(C)=C1C3(C)C)[C@]1(OC(C)=O)CO[C@@H]1C[C@@H]2O + Cc1cccc(N(C)C(=O)C2C(O)CCN2c2nc(C)cc(C(F)(F)F)c2C#N)c1
0.0111 µM: IC50 (second compound 10 µM)
inactive: viability, T/C (second compound 0.0316 µM, first compound 0.00949 µM) 40.2% | viability, T/C (second compound 0.0316 µM, first compound 0.03 µM) 22.1% | viability, T/C (second compound 0.0316 µM, first compound 0.0949 µM) 22% | viability, T/C (second compound 0.0316 µM, first compound 0.3 µM) 19.8% | viability, T/C (second compound 0.0316 µM, first compound 0.949 µM) 18.5% | viability, T/C (second compound 0.0316 µM, first compound 3 µM) 23.1% | viability, T/C (second compound 0.1 µM, first compound 0.00949 µM) 46.9% | viability, T/C (second compound 0.1 µM, first compound 0.03 µM) 29.2% | viability, T/C (second compound 0.1 µM, first compound 0.0949 µM) 21.6% | viability, T/C (second compound 0.1 µM, first compound 0.3 µM) 27.5% | viability, T/C (second compound 0.1 µM, first compound 0.949 µM) 24.6% | viability, T/C (second compound 0.1 µM, first compound 3 µM) 26.7% | viability, T/C (second compound 0.316 µM, first compound 0.00949 µM) 52.2% | viability, T/C (second compound 0.316 µM, first compound 0.03 µM) 25.1% | viability, T/C (second compound 0.316 µM, first compound 0.0949 µM) 24.4% | viability, T/C (second compound 0.316 µM, first compound 0.3 µM) 23.9% | viability, T/C (second compound 0.316 µM, first compound 0.949 µM) 20.8% | viability, T/C (second compound 0.316 µM, first compound 3 µM) 24.8% | viability, T/C (second compound 1 µM, first compound 0.00949 µM) 45.4% | viability, T/C (second compound 1 µM, first compound 0.03 µM) 29.2% | viability, T/C (second compound 1 µM, first compound 0.0949 µM) 22.4% | viability, T/C (second compound 1 µM, first compound 0.3 µM) 18.9% | viability, T/C (second compound 1 µM, first compound 0.949 µM) 26.1% | viability, T/C (second compound 1 µM, first compound 3 µM) 28.2% | viability, T/C (second compound 3.16 µM, first compound 0.00949 µM) 44.1% | viability, T/C (second compound 3.16 µM, first compound 0.03 µM) 24.4% | viability, T/C (second compound 3.16 µM, first compound 0.0949 µM) 32.5% | viability, T/C (second compound 3.16 µM, first compound 0.3 µM) 27.6% | viability, T/C (second compound 3.16 µM, first compound 0.949 µM) 41.8% | viability, T/C (second compound 3.16 µM, first compound 3 µM) 28.9% | viability, T/C (second compound 10 µM, first compound 0.00949 µM) 54.7% | viability, T/C (second compound 10 µM, first compound 0.03 µM) 19.3% | viability, T/C (second compound 10 µM, first compound 0.0949 µM) 21.2% | viability, T/C (second compound 10 µM, first compound 0.3 µM) 25.3% | viability, T/C (second compound 10 µM, first compound 0.949 µM) 21.4% | viability, T/C (second compound 10 µM, first compound 3 µM) 15.6%
0.0104 µM: IC50 (second compound 0.316 µM)
< 0.00949 µM: IC50 (second compound 0.0316 µM) | IC50 (second compound 0.1 µM) | IC50 (second compound 1 µM) | IC50 (second compound 3.16 µM)

COc1cc2cc(C(=O)CCC(=O)O)sc2cc1OC + Cc1cccc(N(C)C(=O)C2C(O)CCN2c2nc(C)cc(C(F)(F)F)c2C#N)c1
> 10 µM: IC50 (second compound 0.0316 µM) | IC50 (second compound 0.1 µM) | IC50 (second compound 0.316 µM) | IC50 (second compound 1 µM) | IC50 (second compound 3.16 µM) | IC50 (second compound 10 µM)
inactive: viability, T/C (second compound 0.0316 µM, first compound 0.0316 µM) 99.1% | viability, T/C (second compound 0.0316 µM, first compound 0.1 µM) 101% | viability, T/C (second compound 0.0316 µM, first compound 0.316 µM) 109% | viability, T/C (second compound 0.0316 µM, first compound 1 µM) 106% | viability, T/C (second compound 0.0316 µM, first compound 3.16 µM) 101% | viability, T/C (second compound 0.0316 µM, first compound 10 µM) 115% | viability, T/C (second compound 0.1 µM, first compound 0.0316 µM) 98.3% | viability, T/C (second compound 0.1 µM, first compound 0.1 µM) 107% | viability, T/C (second compound 0.1 µM, first compound 0.316 µM) 111% | viability, T/C (second compound 0.1 µM, first compound 1 µM) 87.8% | viability, T/C (second compound 0.1 µM, first compound 3.16 µM) 95.6% | viability, T/C (second compound 0.1 µM, first compound 10 µM) 102% | viability, T/C (second compound 0.316 µM, first compound 0.0316 µM) 115% | viability, T/C (second compound 0.316 µM, first compound 0.1 µM) 114% | viability, T/C (second compound 0.316 µM, first compound 0.316 µM) 89.5% | viability, T/C (second compound 0.316 µM, first compound 1 µM) 100% | viability, T/C (second compound 0.316 µM, first compound 3.16 µM) 95.9% | viability, T/C (second compound 0.316 µM, first compound 10 µM) 102% | viability, T/C (second compound 1 µM, first compound 0.0316 µM) 91.7% | viability, T/C (second compound 1 µM, first compound 0.1 µM) 98.5% | viability, T/C (second compound 1 µM, first compound 0.316 µM) 90.2% | viability, T/C (second compound 1 µM, first compound 1 µM) 118% | viability, T/C (second compound 1 µM, first compound 3.16 µM) 92.8% | viability, T/C (second compound 1 µM, first compound 10 µM) 102% | viability, T/C (second compound 3.16 µM, first compound 0.0316 µM) 94.9% | viability, T/C (second compound 3.16 µM, first compound 0.1 µM) 115% | viability, T/C (second compound 3.16 µM, first compound 0.316 µM) 116% | viability, T/C (second compound 3.16 µM, first compound 1 µM) 112% | viability, T/C (second compound 3.16 µM, first compound 3.16 µM) 112% | viability, T/C (second compound 3.16 µM, first compound 10 µM) 106% | viability, T/C (second compound 10 µM, first compound 0.0316 µM) 121% | viability, T/C (second compound 10 µM, first compound 0.1 µM) 108% | viability, T/C (second compound 10 µM, first compound 0.316 µM) 122% | viability, T/C (second compound 10 µM, first compound 1 µM) 116% | viability, T/C (second compound 10 µM, first compound 3.16 µM) 119% | viability, T/C (second compound 10 µM, first compound 10 µM) 117%
